Test results published in US20120270237A9, “METHODS FOR THE IDENTIFICATION OF KINASE INTERACTING MOLECULES AND FOR THE PURIFICATION OF KINASE PROTEINS” (Cellzone AG, priority 2009, published 2012).

Key:
Assay in all cases: Kinobeads competition binding, HL60 cell lysate
Design in all cases: endogenous in cells; host or cells: HL60
Settings in all cases: 10 μM free compound
IRAK3 = IRAK3 (Homo sapiens, UniProt Q9Y616)
Experimental: (§1) To one aliquot of cell lysate 10 μM of the free compound (FIG. 3, CZC31326) was added and allowed to bind to proteins in the lysate. Then the affinity matrix with the immobilized compound (Example 1) was added to capture proteins that were not interacting with the previously added free compound. Beads were separated from the lysate and bead bound proteins were eluted in SDS sample buffer and subsequently separated by SDS-Polyacrylamide gel electrophoresis (FIG. 4). Suitable gel bands were cut out and subjected to in-gel proteolytic digestion with trypsin. The second lysate aliquot was processed identically, however no free compound was added (DMSO solvent control). Peptides originating from samples 1 and 2 were labeled with iTRAQ reagents (iTRAQ 114 and iTRAQ 117) and the combined samples were analyzed with a nano-flow liquid chromatography system coupled online to a tandem mass spectrometer (LC-MS/MS) experiment followed by iTRAQ reporter ion quantification in the MS/MS spectra (Ross et al., 2004. Mol. Cell. Proteomics 3(12):1154-1169). Further experimental protocols can be found in WO2006/134056 and a previous publication (Bantscheff et al., 2007. Nature Biotechnology 25, 1035-1044). Sepharose-beads with the immobilized compound (100 μl beads per pull-down experiment) were equilibrated in lysis buffer and incubated with a cell lysate sample containing 50 mg of protein on an end-over-end shaker (Roto Shake Genie, Scientific Industries Inc.) for 2 hours at 4° C. Beads were collected, transferred to Mobicol-columns (MoBiTech 10055) and washed with 10 ml lysis buffer containing 0.4% NP40 detergent, followed by 5 ml lysis buffer containing 0.2% detergent. To elute bound proteins, 60 μl 2×SDS sample buffer was added to the column. The column was incubated for 30 minutes at 50° C. and the eluate was transferred to a siliconized microfuge tube by centrifugation. Proteins were then alkylated with 108 mM iodoacetamid. Proteins were then separated by SDS-Polyacrylamide electrophoresis (SDS-PAGE). The peptide extracts of samples treated with 10 μM of free compound (CZC31326) and the solvent control (0.5% DMSO) were treated with different variants of the isobaric tagging reagent (iTRAQ Reagents Multiplex Kit, part number 4352135, Applied Biosystems, Foster City, Calif., USA). The iTRAQ reagents are a set of multiplexed, amine-specific, stable isotope reagents that can label peptides on amino groups in up to four different biological samples enabling simultaneous identification and quantitation of peptides. The iTRAQ reagents were used according to instructions provided by the manufacturer. The samples were resuspended in 10 μl 50 mM TEAB solution, pH 8.5 and 10 μl ethanol were added. The iTRAQ reagent was dissolved in 120 μl ethanol and 10 μl of reagent solution were added to the sample. The labeling reaction was performed at room temperature for one hour on a horizontal shaker and stopped by adding 5 μl of 100 mM TEAB and 100 mM glycine in water. The two labeled sampled were then combined, dried in a vacuum centrifuge and resuspended in 10 μl of 0.1% formic acid in water. Relative protein quantitation was performed using peak areas of iTRAQ reporter ion signals essentially as described in an earlier publication (Bantscheff et al., 2007. Nature Biotechnology 25, 1035-1044).

PKN1 = PKN1 (Homo sapiens, UniProt Q16512)
Sequence of PKN1 (Q16512 whole entry): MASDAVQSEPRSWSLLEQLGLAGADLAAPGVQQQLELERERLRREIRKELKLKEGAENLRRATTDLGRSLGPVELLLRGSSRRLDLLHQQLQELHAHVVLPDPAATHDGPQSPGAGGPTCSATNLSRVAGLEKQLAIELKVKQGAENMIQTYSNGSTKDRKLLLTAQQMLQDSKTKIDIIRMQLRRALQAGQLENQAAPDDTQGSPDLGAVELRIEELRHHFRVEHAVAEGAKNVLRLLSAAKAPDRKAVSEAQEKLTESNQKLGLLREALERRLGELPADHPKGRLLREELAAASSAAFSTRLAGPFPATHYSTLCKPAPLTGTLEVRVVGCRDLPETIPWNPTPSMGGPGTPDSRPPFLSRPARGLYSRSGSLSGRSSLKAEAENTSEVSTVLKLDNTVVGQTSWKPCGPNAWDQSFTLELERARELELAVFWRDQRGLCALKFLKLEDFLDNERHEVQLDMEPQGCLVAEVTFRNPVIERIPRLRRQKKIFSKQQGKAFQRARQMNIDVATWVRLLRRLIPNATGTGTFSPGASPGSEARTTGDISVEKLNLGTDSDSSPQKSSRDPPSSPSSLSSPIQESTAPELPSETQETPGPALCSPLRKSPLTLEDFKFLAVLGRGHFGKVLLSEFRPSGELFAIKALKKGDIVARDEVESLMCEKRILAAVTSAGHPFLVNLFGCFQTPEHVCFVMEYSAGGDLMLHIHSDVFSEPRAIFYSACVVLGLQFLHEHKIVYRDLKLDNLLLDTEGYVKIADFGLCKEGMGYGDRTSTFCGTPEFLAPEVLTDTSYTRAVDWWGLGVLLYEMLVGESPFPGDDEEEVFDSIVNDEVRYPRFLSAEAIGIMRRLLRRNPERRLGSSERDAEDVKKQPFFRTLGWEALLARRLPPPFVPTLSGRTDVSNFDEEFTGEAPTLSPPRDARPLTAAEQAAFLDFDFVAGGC
Experimental: as §1

IRAK4 = biological target: T1, IRAK4 (Homo sapiens, UniProt Q9NWZ3)
T1 sequence (Q9NWZ3 1-460): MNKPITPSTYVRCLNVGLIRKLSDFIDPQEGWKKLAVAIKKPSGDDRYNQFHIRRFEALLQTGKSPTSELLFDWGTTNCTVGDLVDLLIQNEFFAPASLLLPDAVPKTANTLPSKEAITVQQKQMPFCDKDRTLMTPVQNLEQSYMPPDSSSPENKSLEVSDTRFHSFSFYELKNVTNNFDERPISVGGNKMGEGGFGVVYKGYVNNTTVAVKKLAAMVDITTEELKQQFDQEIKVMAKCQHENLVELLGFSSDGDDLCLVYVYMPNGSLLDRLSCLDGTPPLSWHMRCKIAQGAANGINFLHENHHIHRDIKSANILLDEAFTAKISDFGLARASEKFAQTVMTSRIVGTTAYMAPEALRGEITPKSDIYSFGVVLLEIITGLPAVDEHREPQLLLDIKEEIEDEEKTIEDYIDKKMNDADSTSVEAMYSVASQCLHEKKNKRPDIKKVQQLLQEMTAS
Experimental: as §1

IRAK1 = IRAK1 (Homo sapiens, UniProt P51617)
Sequence of IRAK1 (P51617 whole entry): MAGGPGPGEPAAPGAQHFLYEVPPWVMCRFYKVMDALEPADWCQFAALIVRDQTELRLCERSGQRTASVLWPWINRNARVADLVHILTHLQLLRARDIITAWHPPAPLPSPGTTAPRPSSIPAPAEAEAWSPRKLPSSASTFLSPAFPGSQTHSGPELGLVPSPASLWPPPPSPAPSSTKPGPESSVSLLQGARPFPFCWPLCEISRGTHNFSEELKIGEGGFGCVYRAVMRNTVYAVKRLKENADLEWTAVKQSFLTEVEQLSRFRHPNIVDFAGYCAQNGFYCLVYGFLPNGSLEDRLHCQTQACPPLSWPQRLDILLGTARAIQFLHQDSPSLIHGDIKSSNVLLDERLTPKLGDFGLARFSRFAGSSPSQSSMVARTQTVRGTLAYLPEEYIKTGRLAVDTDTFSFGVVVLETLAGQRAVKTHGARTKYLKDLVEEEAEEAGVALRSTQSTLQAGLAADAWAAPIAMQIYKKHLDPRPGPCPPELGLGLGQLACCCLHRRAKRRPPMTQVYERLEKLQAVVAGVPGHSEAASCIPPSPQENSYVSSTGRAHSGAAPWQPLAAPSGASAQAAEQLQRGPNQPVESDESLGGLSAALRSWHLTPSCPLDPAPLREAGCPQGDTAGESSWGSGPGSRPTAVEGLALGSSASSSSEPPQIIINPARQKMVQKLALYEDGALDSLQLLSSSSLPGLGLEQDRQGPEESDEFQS
Experimental: as §1

MYT1 = MYT1 (Homo sapiens, UniProt Q99640)
Sequence of MYT1 (Q99640 whole entry): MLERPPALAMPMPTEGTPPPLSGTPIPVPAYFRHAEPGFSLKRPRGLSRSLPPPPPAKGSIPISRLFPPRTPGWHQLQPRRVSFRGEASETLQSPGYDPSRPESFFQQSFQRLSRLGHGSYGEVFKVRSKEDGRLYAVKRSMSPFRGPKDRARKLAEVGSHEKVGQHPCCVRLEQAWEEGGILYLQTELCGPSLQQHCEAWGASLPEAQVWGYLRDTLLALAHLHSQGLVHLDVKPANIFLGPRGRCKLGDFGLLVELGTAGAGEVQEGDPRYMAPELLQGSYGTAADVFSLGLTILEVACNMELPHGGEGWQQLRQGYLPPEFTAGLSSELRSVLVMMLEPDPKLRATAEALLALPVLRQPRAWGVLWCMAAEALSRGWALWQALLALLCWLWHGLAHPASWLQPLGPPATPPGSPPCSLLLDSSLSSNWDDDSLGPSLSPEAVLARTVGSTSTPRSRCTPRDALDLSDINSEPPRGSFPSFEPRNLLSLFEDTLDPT
Experimental: as §1

GSK3A = GSK3A (Homo sapiens, UniProt P49840)
Sequence of GSK3A (P49840 whole entry): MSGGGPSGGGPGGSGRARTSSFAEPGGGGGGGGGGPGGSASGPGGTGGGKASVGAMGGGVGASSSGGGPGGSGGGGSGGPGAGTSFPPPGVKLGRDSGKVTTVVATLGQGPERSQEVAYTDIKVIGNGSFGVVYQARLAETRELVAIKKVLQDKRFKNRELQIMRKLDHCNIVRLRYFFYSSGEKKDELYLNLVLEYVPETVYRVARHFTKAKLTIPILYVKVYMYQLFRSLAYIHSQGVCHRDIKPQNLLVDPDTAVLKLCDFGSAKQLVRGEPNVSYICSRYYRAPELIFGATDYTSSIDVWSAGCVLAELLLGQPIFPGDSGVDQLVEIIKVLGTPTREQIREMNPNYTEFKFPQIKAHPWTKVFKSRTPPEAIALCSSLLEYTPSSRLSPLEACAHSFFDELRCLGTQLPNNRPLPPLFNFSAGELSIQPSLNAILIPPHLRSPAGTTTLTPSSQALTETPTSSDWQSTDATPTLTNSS
Experimental: as §1

MSK2 = MSK2 (Homo sapiens, UniProt O75676)
Sequence of MSK2 (O75676 whole entry): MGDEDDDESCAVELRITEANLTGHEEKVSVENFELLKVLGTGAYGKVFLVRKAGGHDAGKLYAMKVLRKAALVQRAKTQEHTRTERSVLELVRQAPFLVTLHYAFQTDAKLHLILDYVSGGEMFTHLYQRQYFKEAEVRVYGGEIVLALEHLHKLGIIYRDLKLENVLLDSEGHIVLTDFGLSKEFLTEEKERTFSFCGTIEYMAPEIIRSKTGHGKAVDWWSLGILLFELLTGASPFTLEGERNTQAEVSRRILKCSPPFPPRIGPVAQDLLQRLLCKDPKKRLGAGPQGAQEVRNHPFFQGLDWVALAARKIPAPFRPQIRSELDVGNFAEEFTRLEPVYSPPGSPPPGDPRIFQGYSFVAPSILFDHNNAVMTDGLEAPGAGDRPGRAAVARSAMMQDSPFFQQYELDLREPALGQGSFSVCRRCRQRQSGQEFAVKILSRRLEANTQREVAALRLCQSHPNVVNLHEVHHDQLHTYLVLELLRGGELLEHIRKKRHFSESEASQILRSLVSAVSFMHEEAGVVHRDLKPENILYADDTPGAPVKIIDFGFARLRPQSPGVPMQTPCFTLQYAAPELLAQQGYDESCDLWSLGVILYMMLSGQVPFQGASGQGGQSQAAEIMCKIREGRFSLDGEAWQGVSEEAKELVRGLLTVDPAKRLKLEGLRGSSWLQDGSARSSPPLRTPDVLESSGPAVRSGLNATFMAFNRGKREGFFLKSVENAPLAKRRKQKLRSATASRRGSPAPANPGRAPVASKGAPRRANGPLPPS
Experimental: as §1

HPK1 = HPK1 (Homo sapiens, UniProt Q92918)
Sequence of HPK1 (Q92918 whole entry): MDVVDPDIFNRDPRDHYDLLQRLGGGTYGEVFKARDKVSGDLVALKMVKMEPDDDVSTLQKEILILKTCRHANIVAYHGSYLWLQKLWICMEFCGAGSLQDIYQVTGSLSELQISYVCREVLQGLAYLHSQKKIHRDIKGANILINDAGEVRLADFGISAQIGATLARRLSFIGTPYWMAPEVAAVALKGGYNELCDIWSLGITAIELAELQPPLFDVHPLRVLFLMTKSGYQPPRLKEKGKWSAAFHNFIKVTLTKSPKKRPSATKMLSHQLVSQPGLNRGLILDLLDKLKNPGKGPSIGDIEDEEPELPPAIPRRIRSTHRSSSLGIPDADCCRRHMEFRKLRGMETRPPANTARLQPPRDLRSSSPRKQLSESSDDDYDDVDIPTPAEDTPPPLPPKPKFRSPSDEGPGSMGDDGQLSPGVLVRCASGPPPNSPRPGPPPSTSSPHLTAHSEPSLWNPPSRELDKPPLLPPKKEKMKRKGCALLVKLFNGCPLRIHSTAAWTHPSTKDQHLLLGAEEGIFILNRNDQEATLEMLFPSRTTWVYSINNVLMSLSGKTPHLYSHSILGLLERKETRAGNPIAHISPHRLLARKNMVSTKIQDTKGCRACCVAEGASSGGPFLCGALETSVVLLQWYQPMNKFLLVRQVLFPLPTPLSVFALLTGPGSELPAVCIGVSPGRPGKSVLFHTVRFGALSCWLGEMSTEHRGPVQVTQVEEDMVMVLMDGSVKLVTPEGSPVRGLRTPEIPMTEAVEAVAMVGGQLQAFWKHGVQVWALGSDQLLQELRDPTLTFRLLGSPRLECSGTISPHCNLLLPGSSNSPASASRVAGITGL
Experimental: as §1

Sequence of IRAK3 (Q9Y616 whole entry): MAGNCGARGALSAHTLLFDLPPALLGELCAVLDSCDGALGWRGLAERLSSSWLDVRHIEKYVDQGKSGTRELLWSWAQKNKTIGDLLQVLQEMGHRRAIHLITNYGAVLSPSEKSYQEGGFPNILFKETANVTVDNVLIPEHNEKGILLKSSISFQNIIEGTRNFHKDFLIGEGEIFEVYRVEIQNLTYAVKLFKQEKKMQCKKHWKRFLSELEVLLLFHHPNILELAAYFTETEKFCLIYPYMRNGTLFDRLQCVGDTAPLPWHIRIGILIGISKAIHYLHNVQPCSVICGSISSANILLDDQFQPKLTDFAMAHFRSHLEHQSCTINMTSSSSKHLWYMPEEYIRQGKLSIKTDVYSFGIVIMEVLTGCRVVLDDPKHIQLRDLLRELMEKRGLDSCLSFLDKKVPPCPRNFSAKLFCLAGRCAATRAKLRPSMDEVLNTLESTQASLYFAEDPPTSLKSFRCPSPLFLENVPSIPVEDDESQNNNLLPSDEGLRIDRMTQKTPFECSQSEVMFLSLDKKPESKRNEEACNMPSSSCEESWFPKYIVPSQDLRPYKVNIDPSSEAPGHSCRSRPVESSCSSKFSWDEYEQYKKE

- inhibition at 10 µM (IRAK3): 97.2%
- inhibition at 10 µM (PKN1): 97%
- Competition % (IRAK4): 97.5%
- inhibition at 10 µM (IRAK1): 94.9%
- Competition % (MYT1): 90.5%
- inhibition at 10 µM (GSK3A): 96.2%
- inhibition at 10 µM (MSK2): 96.8%
- inhibition at 10 µM (HPK1): 97.7%
SMILES: CS(=O)(=O)Nc1ccccc1Nc1nc(Nc2cccc(OCCN)c2)ncc1Cl [CZC31326, N-(2-(2-(3-(2-aminoethoxy)phenylamino)-5-chloropyrimidin-4-ylamino)phenyl)methanesulfonamide]
